Laboratory results: US10167266B2, “Sodium channel blockers” (Parion Sciences, Inc., priority 2002, dated 2019)
Several values for one entry are separate records, joined by “and”; a condition that tells them apart may be missing. Identical values can stand only once. Counter-ions that a name gives are not always drawn.

System: sodium channel (ENaC), canine bronchial epithelia
Assay: Sodium channel blocking activity: inhibition of short circuit current (ISC) in airway epithelial monolayers in Ussing chambers
Format: cell-based
Conditions: for Fold Amiloride* / Fold Enhancement Over Amiloride: potency in canine bronchial epithelia relative to amiloride; for Fold potency relative to amiloride: Example 51
Experimental: One assay used to assess mechanism of action and/or potency of the compounds of the present invention involves the determination of lumenal drug inhibition of airway epithelial sodium currents measured under short circuit current (ISC) using airway epithelial monolayers mounted in Ussing chambers. Cells obtained from freshly excised human, dog, sheep or rodent airways are seeded onto porous 0.4 micron Snapwell™ Inserts (CoStar), cultured at air-liquid interface (ALI) conditions in hormonally defined media, and assayed for sodium transport activity (ISC) while bathed in Krebs Bicarbonate Ringer (KBR) in Using chambers. All test drug additions are to the lumenal bath with half-log dose addition protocols (from 1×10^−11 M to 3×10^−5 M), and the cumulative change in ISC (inhibition) recorded. All drugs are prepared in dimethyl sulfoxide as stock solutions at a concentration of 1×10^−2 M and stored at −20° C. Eight preparations are typically run in parallel; two preparations per run incorporate amiloride and/or benzamil as positive controls. After the maximal concentration (5×10^−5 M) is administered, the lumenal bath is exchanged three times with fresh drug-free KBR solution, and the resultant ISC measured after each wash for approximately 5 minutes in duration. Reversibility is defined as the percent return to the baseline value for sodium current after the third wash. All data from the voltage clamps are collected via a computer interface and analyzed off-line.
Dose-effect relationships for all compounds are considered and analyzed by the Prism 3.0 program. IC50 values, maximal effective concentrations, and reversibility are calculated and compared to amiloride and benzamil as positive controls.
Amiloride was also tested in this assay as a positive control. The results for the compounds of the present invention are reported as fold-enhancement values relative to amiloride.

Structure (SMILES): N=C(NCCCCc1ccc(CCO)cc1)NC(=O)c1nc(Cl)c(N)nc1N [drawing 60: R=OH, N=2, 4-(4-(2-Hydroxyethyl)phenyl)butylamidino-3,5-diamino-6-chloropyrazinecarboxamide hydrochloride]
- Fold Amiloride* (Example 41): 79.2 ± 30.6 (4) fold
- Fold Amiloride* (Example 47): 79.2 ± 30.6 (4) fold

Structure (SMILES): N=C(NCCCCc1cccc(OCC(O)CO)c1)NC(=O)c1nc(Cl)c(N)nc1N (centres unmarked) [drawing 69: R=CH2OH, Meta, 4-[3-(2-,3-Dihydroxypropyloxyl)phenyl)]butylamidino-3,5-diamino-6-chloropyrazinecarboxamide hydrochloride]
- Fold Amiloride* (Example 50): 40 (1) fold

Structure (SMILES): COCCOc1ccc(CCCCNC(=N)NC(=O)c2nc(Cl)c(N)nc2N)cc1.Cl [drawing 50: n=1, 4-[4-(1,4-Dioxapent-1-yl)phenyl]butylamidino-3,5-diamino-6-chloropyrazinecarboxamide hydrochloride]
- Fold Enhancement Over Amiloride (Example 30): 87 fold
- Fold Amiloride* (Example 48): 51.5 ± 14.9 (2) fold

Structure (SMILES): Cl.NC(=NCCCCc1ccc(OCCCO)cc1)NC(=O)c1nc(Cl)c(N)nc1N [drawing 61: R=OH, n=3]
- Fold Amiloride* (Example 42): 105.2 ± 26.6 (7) fold

Structure (SMILES): COC(=O)c1ccc(CCCCNC(=N)NC(=O)c2nc(Cl)c(N)nc2N)cc1 [drawing 51: R^5=—CO2CH3, 4-(4-Carboxymethylphenyl)butylamidino-3,5-diamino-6-chloropyrazinecarboxamide hydrochloride]
- Fold Enhancement Over Amiloride (Example 31): 26.5 fold

Structure (SMILES): CC1(C)OCC(COc2ccc(CCCCNC(=N)NC(=O)c3nc(Cl)c(N)nc3N)cc2)O1 (centres unmarked) [drawing 48: R=H3CxCH3*, 4-[4-(2,2 Dimethyl-[1,3]dioxolan-4 yl)methyloxyphenyl]butylamidino-3,5-diamino-6-chloropyrazinecarboxamide]
- Fold Enhancement Over Amiloride (Example 29): 91 fold

Structure (SMILES): Cl.Cl.N=C(NCCCCc1ccc(OCCNC[C@H](O)[C@H](O)CO)cc1)NC(=O)c1nc(Cl)c(N)nc1N [drawing 67: O CH2 CH2 NH R^a, N-[4-(4-{2-[(2S,3R)-2,3,4-trihydroxybutylamino]ethoxy}phenyl)butyl]-N′-(3,5-diamino-6-chloropyrazine-2-carbonyl)guanidine dihydrochloride]
- Fold Amiloride* (Example 48): 52.9 ± 14.3 (5) fold

Structure (SMILES): N=C(NCCc1ccc(N)cc1)NC(=O)c1nc(Cl)c(N)nc1N [drawing 47: n=2, 4, NH2, 4-(4-Aminophenyl)ethylamidino-3,5-diamino-6-chloropyrazinecarboxamide hydrochloride]
- Fold Enhancement Over Amiloride (Example 28): 12.7 fold

Structure (SMILES): COCCOCCOCCOCCOc1ccc(CCCCNC(=N)NC(=O)c2nc(Cl)c(N)nc2N)cc1.Cl [drawing 50: n=4, 4-[4-(1,4,7,10,13-pentoxatetradec-1-yl)phenyl]-butylamidino-3,5-diamino-6-chloropyrazinecarboxamide hydrochloride]
- Fold Enhancement Over Amiloride (Example 30): 28.7 fold

Structure (SMILES): CC(=O)OCC(COc1ccc(CCCCNC(=N)NC(=O)c2nc(Cl)c(N)nc2N)cc1)OC(C)=O (centres unmarked) [drawing 48: R=drawing 49, 4-[4-(2,3-Diacetoxypropyloxy)phenyl]butylamidino-3,5-diamino-6-chloropyrazinecarboxamide]
- Fold Enhancement Over Amiloride (Example 29): 36 fold

Structure (SMILES): N=C(NCCCCc1ccc(N)cc1)NC(=O)c1nc(Cl)c(N)nc1N [drawing 60: R=NH2, N=0, 4-[4-(4-Amino)phenyl)]butylamidino-3,5-diamino-6-chloropyrazinecarboxamide hydrochloride]
- Fold potency relative to amiloride: 32.6 ± 2
- Fold Amiloride* (Example 41): 32.6 ± 2.0 (3) fold
- Fold Amiloride* (Example 43): 32.6 ± 2 (3) fold
- Fold Amiloride* (Example 48): 32.6 ± 2 (3) ^ fold

Structure (SMILES): N=C(NCCCCc1cccc(OCCO)c1)NC(=O)c1nc(Cl)c(N)nc1N [drawing 69: R=H, Meta, 4-[3-(2-Hydroxyethyloxy)phenyl)butylamidino-3,5-diamino-6-chloropyrazinecarboxamide hydrochloride]
- Fold Amiloride* (Example 50): 41.1 ± 8.5 (2) fold

Structure (SMILES): N=C(NCCCCc1ccc(OCCN)cc1)NC(=O)c1nc(Cl)c(N)nc1N [drawing 61: R=NH2, n=2, 4-[4-(2-aminoethyloxy)phenyl)butylamidino-3,5-diamino-6-chloropyrazinecarboxamide hydrochloride]
- Fold potency relative to amiloride: 56.5 ± 0
- Fold Amiloride* (Example 42, hydrochloride): 60.1 ± 1.3 (2) fold and 56.5 ± 0 (4) ^ fold
- Fold Amiloride* (Example 45): 56.5 ± 24 (4) fold
- Fold Amiloride* (Example 48): 84.9 ± 30.3 (6) fold

Structure (SMILES): N=C(NCCCCc1ccc(OCC(N)=O)cc1)NC(=O)c1nc(Cl)c(N)nc1N [drawing 65: R=—NH2, 2-{4-[N′-(3,5-diamino-6-chloropyrazine-2-carbonyl)guanidino]-4-butylphenoxy}acetamide hydrochloride]
- Fold Amiloride* (Example 46): 48.2 ± 24.1 (7) fold

Structure (SMILES): N=C(NCCCCc1ccccc1OCC(O)CO)NC(=O)c1nc(Cl)c(N)nc1N (centres unmarked) [drawing 69: R=CH2OH, Ortho, 4-[2-(2-,3-Dihydroxypropyloxy)phenyl)]butylamidino-3,5-diamino-6-chloropyrazinecarboxamide hydrochloride]
- Fold Amiloride* (Example 50): 24.0 ± 1.0 (2) fold

Structure (SMILES): NC(=NC(=O)c1nc(Cl)c(N)nc1N)NCCCCc1ccc(OS(=O)(=O)O)cc1 [drawing 51: R^5=—O—SO3H, 4-(4-Sulfatephenyl)butylamidino-3,5-diamino-6-chloropyrazinecarboxamide]
- Fold Enhancement Over Amiloride (Example 31): 27.7 fold

Structure (SMILES): Cl.NC(=NCCCCc1ccc(OCCO)cc1)NC(=O)c1nc(Cl)c(N)nc1N [drawing 61: R=OH, n=2]
- Fold potency relative to amiloride: 84.9 ± 30.3
- Fold Amiloride* (Example 42): 84.9 ± 30.3 (6) fold
- Fold Amiloride* (Example 47): 84.9 ± 30.3 (6) fold
- Fold Amiloride* (Example 50): 80.3 ± 25.5 (9) fold

Structure (SMILES): COC(=O)C1OC(Oc2ccc(CCCCNC(N)=NC(=O)c3nc(Cl)c(N)nc3N)cc2)C(OC(C)=O)C(OC(C)=O)C1OC(C)=O (centres unmarked) [drawing 51: R^5=40, 4-[4-(Methyl-2,3,4-tri-O-acetyl-glucopyranonuronate-1-O-yl)phenyl]butylamidino-3,5-diamino-6-chloropyrazinecarboxamide]
- Fold Enhancement Over Amiloride (Example 31): 65 fold

Structure (SMILES): N=C(NCCCCc1ccc(OCCCO)cc1)NC(=O)c1nc(Cl)c(N)nc1N [drawing 61: R=OH, n=3, 4-[4-(3-Hydroxypropyloxy)phenyl)]butylamidino-3,5-diamino-6-chloropyrazinecarboxamide hydrochloride]
- Fold potency relative to amiloride: 105.2 ± 26.6
- Fold Amiloride* (Example 47): 105.2 ± 26.6 (7) fold

Structure (SMILES): Cl.N=C(NCCCCc1ccc(CO)cc1)NC(=O)c1nc(Cl)c(N)nc1N [drawing 51: R^5=—CH2OH, 4-(4-Hydroxymethylphenyl)butylamidino-3,5-diamino-6-chloropyrazinecarboxamide hydrochloride]
- Fold potency relative to amiloride: 50.9 ± 19.8 (3)
- Fold Enhancement Over Amiloride (Example 31): 57 fold
- Fold Amiloride* (Example 41): 50.9 ± 19.8 (3) fold
- Fold Amiloride* (Example 44): 50.9 ± 19.8 (3) fold

Structure (SMILES): Cl.Cl.N=C(NCCCCc1ccc(OCCN(C[C@H](O)[C@H](O)CO)C[C@H](O)[C@H](O)CO)cc1)NC(=O)c1nc(Cl)c(N)nc1N [drawing 67: O CH2 CH2 NR R^a,c (r13), N-[4-(4-{2-[bis-((2S,3R)-2,3,4-trihydroxybutyl)amino]ethoxy}phenyl)butyl]-N′-(3,5-diamino-6-chloropyrazine-2-carbonyl)guanidine dihydrochloride]
- Fold Amiloride* (Example 48): 73.2 ± 49.3 (9) fold

Structure (SMILES): Cl.N=C(NCCCCc1ccc(OCC(O)CO)cc1)NC(=O)c1nc(Cl)c(N)nc1N (centres unmarked) [drawing 48: R=H, 4-[4(2,3-Dihydroxypropyloxyl)phenyl]butylamidino-3,5-diamino-6-chloropyrazinecarboxamide hydrochloride]
- Fold Enhancement Over Amiloride (Example 29): 124 fold
- Fold Amiloride* (Example 47): 51.95 (50) fold
- Fold Amiloride* (Example 48): 51.95 (79) fold
- Fold Amiloride* (Example 50): 51.55 (79) fold

Structure (SMILES): NC(=NC(=O)c1nc(Cl)c(N)nc1N)NCCCCc1ccc(OC2OC(C(=O)O)C(O)C(O)C2O)cc1 (centres unmarked) [drawing 51: R^5=—O-Glucuronide Na^+ Salt, 4-[4-(5-Carboxy-glucopyranonuronate-1-O-yl)-phenyl]butylamidino-3,5-diamino-6-chloropyrazinecarboxamide]
- Fold Enhancement Over Amiloride (Example 31): 11.2 fold

Structure (SMILES): CCOC(=O)COc1ccc(CCCCNC(N)=NC(=O)c2nc(Cl)c(N)nc2N)cc1 [drawing 68: OCH2CO2ET, (4-{4-[N′-(3,5-Diamino-6-chloropyrazine-2-carbonyl)guanidino]butyl}phenoxy)acetic acid ethyl ester]
- Fold Amiloride* (Example 49): 20 (1) fold

Structure (SMILES): CC(C)(C)OC(=O)NCCOc1ccc(CCCCNC(N)=NC(=O)c2nc(Cl)c(N)nc2N)cc1 [drawing 64: X=NHCO2(CH3)3, [2-(4-{4-[N′-(3,5-Diamino-6-chloropyrazine-2-carbonyl)guanidino]butyl}phenoxy)ethyl]-carbamic acid tert-butyl ester]
- Fold Amiloride* (Example 45): 51.7 ± 10.1 (2) fold
- Fold Amiloride* (Example 49): 51.7 ± 10.1 (2) fold
